{"source": "patent US6340670B1", "about": "“Acetal benzylmaltosides as inhibitors of smooth muscle cell proliferation” (American Home Products Corporation, priority 1998, dated 2002)", "system": "Porcine Smooth Muscle Cell", "assay": "Effects of Compounds on Cell Proliferation Using 3H Thymidine Incorporation", "assay_type": "cell-based", "conditions": "for IC50: serum/growth factor stimulated cells, 24-36 h incubation, read-out: Porcine Smooth Muscle Cell Antiproliferation IC50", "method": "Effects of Compounds on Cell Proliferation Using ^3H Thymidine Incorporation\nHuman and porcine smooth muscle cells were tested in early passage (generally passage 3-7) at sub-confluent conditions. Cultures were grown in 16 mm (24 well) multi-well culture dishes in medium 199 supplemented with 10% fetal bovine serum and 2% antibiotic/antimycotic. At sub-confluence, the cells were placed in a defined serum free medium (AIM-V; Gibco) for 24-48 h prior to initiating the experimental protocol.\nCompounds were added to each well at 50 fold dilution (20 μL/well) and the plates were incubated for 24-36 h at 37° C. in 5% CO2. Compounds were initially dissolved in 50% ethanol and serially diluted into media. Compounds were routinely evaluated at concentrations from 1 to 100 μM. As a control, grade II porcine intestinal mucosal heparin (sodium salt) was routinely evaluated in all cell preparations at concentrations from 0.1 to 100 μg/mL.\nAt the completion of the test procedure, plates were placed on ice, washed three times with ice cold phosphate buffered saline (PBS) and incubated in ice cold 10% trichloroacetic acid (TCA) got 30 min to remove acid soluble proteins. Solution was transferred to scintillation vials containing 0.4 N HCl (500 μL/vial to neutralize NaOH) and each well was rinsed two times with water (500 μL) for a total volume of 2 mL/vial.\nData was obtained, in triplicate, for both control and experimental samples. Control (100%) data was obtained from maximally stimulated cells, as the result of growth factor or serum stimulation. Experimental data was obtained from cells maximally stimulated with growth factor or serum and treated with compound. Data are expressed as an IC50 or percent inhibition in Table I below."}
{"compound": "CC(=O)Nc1cc(COC2OC(CO)C(OC3OC4COC(C)OC4C(O)C3O)C(O)C2O)ccc1Cl", "note": "[Example 1, N-{2-Chloro-5-[(4′,6′-O-ethylidene)-β-D-maltosyloxymethyl]-phenyl}-acetamide]", "values": [{"measurement": "Porcine Smooth Muscle Cell Antiproliferation, percent inhibition", "setting": "@ 100 μM, control (100%) = maximally stimulated cells", "value": 32, "unit": "% @ 100"}]}
{"compound": "CC(=O)Nc1cc(COC2OC(COC(=O)c3ccccc3)C(OC3OC4COC(CCC#N)OC4C(O)C3O)C(O)C2O)ccc1Cl", "note": "[Example 19, N-{5-{[6-O-Benzoyl-4′,6′-O-((1R)-3-cyanopropylidene)-β-D-maltosyloxy]-methyl}-2-chloro-phenyl}-acetamide]", "values": [{"measurement": "IC50", "value": 1, "unit": "nM"}]}
{"compound": "CC(=O)Nc1cc(COC2OC(COC(=O)c3ccc(C#N)cc3)C(OC3OC4COC(c5ccccc5)OC4C(O)C3O)C(O)C2O)ccc1Cl", "note": "[Example 40, (R)-N-[2-Chloro-5-[[[6-O-(4-cyanobenzoyl)-4-O-[4,6O-(phenylmethylene)-α-D-glucopyranosyl]-β-D-glucopyranosyl]oxy]methyl]phenyl]acetamide]", "values": [{"measurement": "IC50", "value": 92, "unit": "nM"}]}
{"compound": "CC(=O)Nc1cc(COC2OC(CO)C(OC3OC4COC(c5ccc([N+](=O)[O-])cc5)OC4C(O)C3O)C(O)C2O)ccc1Cl", "note": "[Example 10, N-(2-Chloro-5-{[4′,6′-O-(4-nitro)-benzylidene-β-D-maltosyl]-oxy-methyl}-phenyl)-acetamide]", "values": [{"measurement": "IC50", "value": 19200, "unit": "nM"}]}
{"compound": "O=C(OCC1OC(OCc2ccc(Cl)c([N+](=O)[O-])c2)C(O)C(O)C1OC1OC2COC(c3ccccc3)OC2C(O)C1O)c1ccccc1", "note": "[Example 30, 4-Chloro-3-nitro-benzyl-6-O-benzoyl-4′,6′-O-benyzlidene-β-D-maltoside]", "values": [{"measurement": "IC50", "value": 351, "unit": "nM"}]}
{"compound": "O=C(Nc1cc(CO[C@@H]2O[C@H](COC(=O)c3ccccc3I)[C@@H](O[C@H]3O[C@@H]4COC(c5ccccc5)O[C@H]4[C@H](O)[C@H]3O)[C@H](O)[C@H]2O)ccc1Cl)c1ccc(C(=O)c2ccccc2)cc1", "note": "(stereo partly drawn) [Example 72, 4-Benzoyl-N-{5-[(4′,6′-O-benzylidene-6-O-(2-iodo)-benzoyl-β-D-maltosyl)-oxy-methyl]-2-chloro-phenyl}-benzamide]", "values": [{"measurement": "IC50", "value": 16, "unit": "nM"}]}
{"compound": "CC(=O)Nc1cc(COC2OC(COC(=O)Cc3ccccc3)C(OC3OC4COC(c5ccccc5)OC4C(OC(C)=O)C3OC(C)=O)C(OC(C)=O)C2OC(C)=O)ccc1Cl", "note": "[Example 47, (R)-N-[2-Chloro-5-[[[2,3-di-O-acetyl-4-O-[2,3-di-O-acetyl-4,6-O-(phenylmethylene)-α-D-glucopyranosyl]-6-O-(phenylacetyl)-β-D-glucopyranosyl]-oxy]methyl]phenyl]acetamide]", "values": [{"measurement": "IC50", "value": 78, "unit": "nM"}]}
{"compound": "C[C@H](N)C(=O)Nc1cc(CO[C@@H]2O[C@H](COC(=O)c3ccccc3)[C@@H](O[C@H]3O[C@@H]4COC(c5ccccc5)O[C@H]4[C@H](O)[C@H]3O)[C@H](O)[C@H]2O)ccc1Cl", "note": "(stereo partly drawn) [Example 77, N′-{5-[(6-O-benzoyl-4′,6′-O-benzylidene-β-D-maltosyl)-oxy-methyl]-2-chloro-phenyl}-L-alaninamide]", "values": [{"measurement": "IC50", "value": 81, "unit": "nM"}]}
{"compound": "O=C(Nc1cc(CO[C@@H]2O[C@H](CO)[C@@H](O[C@H]3O[C@@H]4COC(c5ccccc5)O[C@H]4[C@H](O)[C@H]3O)[C@H](O)[C@H]2O)ccc1Cl)c1ccco1", "note": "(stereo partly drawn) [Example 63, Furan-2-carboxylic acid {5-[(4′,6′-O-benzylidene-β-D-maltosyl)-oxy-methyl]-2-chloro-phenyl}-amide]", "values": [{"measurement": "IC50", "value": 7730, "unit": "nM"}]}
{"compound": "CC(=O)Nc1cc(COC2OC(COC(=O)CCCc3ccccc3)C(OC3OC4COC(c5ccccc5)OC4C(O)C3O)C(O)C2O)ccc1Cl", "note": "[Example 49, N-{5-[(4′,6′-O-Benzylidene-6-O-phenyl-propyl-carboxyl-β-D-maltosyl)-oxy-methyl]-2-chloro-phenyl}-acetamide]", "values": [{"measurement": "IC50", "value": 104, "unit": "nM"}]}
{"compound": "OCC1OC(OCc2ccc(Cl)cc2)C(O)C(O)C1OC1OC2COC(c3ccccc3)OC2C(O)C1O", "note": "[Example 68, (4-Chloro)-benzyl-4′,6′-O-benzylidene-β-D-maltoside]", "values": [{"measurement": "IC50", "value": 25300, "unit": "nM"}]}
{"compound": "O=C(OCC1OC(OCc2ccc(Cl)c(NC(=O)c3ccco3)c2)C(O)C(O)C1OC1OC2COC(c3ccccc3)OC2C(O)C1O)c1ccccc1", "note": "[Example 64, Furan-2-carboxylic acid {5-[(6-O-benzoyl-4′,6′-O-benzylidene-β-D-maltosyl)-oxy-methyl]-2-chloro-phenyl}-amide]", "values": [{"measurement": "IC50", "value": 50, "unit": "nM"}]}
{"compound": "O=[N+]([O-])c1cc(CSC2OC(CO)C(OC3OC4COC(c5ccccc5)OC4C(O)C3O)C(O)C2O)ccc1Cl", "note": "(stereo not drawn) [Example 86, 6-[-6-(4-Chloro-3-nitro-benzylsulfanyl)-4,5-dihydroxy-2-hydroxymethyl-tetrahydro-pyran-3-yloxy]-2-phenyl-hexahydro-pyrano[3,2-d][1.3]dioxine-7.8-diol]", "values": [{"measurement": "IC50", "value": 16300, "unit": "nM"}]}
{"compound": "O=C(Nc1cc(COC2OC(CO)C(OC3OC4COC(c5ccccc5)OC4C(O)C3O)C(O)C2O)ccc1Cl)c1cccnc1", "note": "[Example 61, (R)-N-[2-Chloro-5-[[[4-O-[4′,6′-O-(phenylmethylene)-α-D-glucopyranosyl]-β-D-glucopyranosyl]oxy]methyl]phenyl]-3-pyridinecarboxamide]", "values": [{"measurement": "IC50", "value": 13700, "unit": "nM"}]}
{"compound": "CC(=O)Nc1cc(CO[C@@H]2O[C@H](COC(=O)c3ccccc3)[C@@H](O[C@H]3O[C@@H]4COC(c5ccccc5)O[C@H]4[C@H](O)[C@H]3O)[C@H](O)[C@H]2O)ccc1Cl", "note": "(stereo partly drawn) [Example 26, N-{5-[(6-O-Benzoyl-4′,6′-O-benzylidene-β-D-maltosyl-oxy)-methyl]-2-chloro-phenyl}-acetamide]", "values": [{"measurement": "IC50", "value": "10 to 30", "unit": "nM"}]}
{"compound": "CC(=O)Nc1cc(COC2OC(COC(=O)c3ccc(C(=O)c4ccccc4)cc3)C(OC3OC4COC(c5ccccc5)OC4C(O)C3O)C(O)C2O)ccc1Cl", "note": "[Example 56, (R)-N-[5-[[[6-O-(4-Benzoylbenzoyl)-4-O-[4,6-O-(phenylmethylene)-α-D-glucopyranosyl]-β-D-glucopyranosyl]oxy]methyl]-2-chlorophenyl]acetamide]", "values": [{"measurement": "IC50", "value": 530, "unit": "nM"}]}
{"compound": "CC(=O)N(C)c1cc(COC2OC(COC(=O)c3ccccc3)C(OC3OC4COC(c5ccccc5)OC4C(O)C3O)C(O)C2O)ccc1Cl", "note": "[Example 79, N-{5-[(6-O-Benzoyl-4′,6′-O-benzylidene-β-D-maltosyl)-oxymethyl]-2-chloro-phenyl}-N-methyl-acetamide]", "values": [{"measurement": "IC50", "value": 2360, "unit": "nM"}]}
{"compound": "CC(=O)Nc1cc(CO[C@@H]2O[C@H](CO)[C@@H](O[C@H]3O[C@@H]4COC(c5ccccc5)O[C@H]4[C@H](O)[C@H]3O)[C@H](O)[C@H]2O)ccc1Cl", "note": "(stereo partly drawn) [Example 24, N-{5-[(4′,6′-O-Benzylidene-β-D-maltosyloxy)-methyl]-2-chloro-phenyl}-acetamide]", "values": [{"measurement": "IC50", "value": 6600, "unit": "nM"}]}
{"compound": "CC(=O)Nc1cc(CO[C@@H]2O[C@H](COC(=O)CCc3ccccc3)[C@@H](O[C@H]3O[C@@H]4COC(c5ccccc5)O[C@H]4[C@H](O)[C@H]3O)[C@H](O)[C@H]2O)ccc1Cl", "note": "(stereo partly drawn) [Example 48, N-{5-[(4′,6′-O-Benzylidene-6-O-phenyl-ethyl-carboxyl-β-D-maltosyl)-oxy-methyl]-2-chloro-phenyl}-acetamide]", "values": [{"measurement": "IC50", "value": 7, "unit": "nM"}]}
{"compound": "N-{5-[(6-O-Benzyl-4′,6′-O-ethylidene-β-D-maltosyl)-oxy-methyl]-2-chloro-phenyl}-acetamide [Example 9]", "values": [{"measurement": "IC50", "value": 83, "unit": "nM"}]}
{"compound": "CC(=O)Nc1cc(COC2OC(COC(=O)c3ccc(I)cc3)C(OC3OC4COC(c5ccccc5)OC4C(O)C3O)C(O)C2O)ccc1Cl", "note": "[Example 45, N-{5-[(4′,6′-O-Benzylidene-6-(4-iodo-benzoyl)-oxy-β-D-maltosyl)-oxy-methyl]-2-chloro-phenyl}-acetamide]", "values": [{"measurement": "IC50", "value": 6440, "unit": "nM"}]}
{"compound": "Benzoic acid 6-(3-acetylamino-4-chloro-benzoyloxy)-3-(7,8-dihydroxy-2-pyridin-4-yl-hexahydro-pyrano[3,2-d][1,3]dioxin-6-yloxy)-4,5-dihydroxy-tetrahydro-pyran-2-ylmethyl ester [Example 23]", "values": [{"measurement": "IC50", "value": 3, "unit": "nM"}]}
{"compound": "O=C(Nc1cc(COC2OC(CO)C(OC3OC4COC(c5ccccc5)OC4C(O)C3O)C(O)C2O)ccc1Cl)c1ccc(C(=O)c2ccccc2)cc1", "note": "[Example 70, 4-Benzoyl-N-{5-[(4′,6′-O-benzylidene-β-D-maltosyl)-oxy-methyl]-2-chloro-phenyl}-benzamide]", "values": [{"measurement": "IC50", "value": 9940, "unit": "nM"}]}
{"compound": "CC(=O)Nc1cc(COC2OC(COC(=O)c3ccccc3I)C(OC3OC4COC(c5ccccc5)OC4C(O)C3O)C(O)C2O)ccc1Cl", "note": "[Example 43, N-{5-[(4′,6′-O-Benzylidene-6-O-(2-iodo)-benzoyl-β-D-maltosyl)-oxy-methyl]-2-chloro-phenyl)-acetamide]", "values": [{"measurement": "IC50", "value": 8, "unit": "nM"}]}
{"compound": "CC(=O)Nc1cc(COC2OC(CO)C(OC3OC4COC(c5ccccc5)OC4C(O)C3O)C(O)C2O)ccc1C", "note": "[Example 57, N-{5-[(4′,6′-O-Benzylidene-β-D-maltosyl)-oxy-methyl]-2-methyl-phenyl}-acetamide]", "values": [{"measurement": "IC50", "value": 8900, "unit": "nM"}]}
{"compound": "CC(=O)Nc1cc(COC2OC(CO)C(OC3OC4COC(Cc5ccccc5)OC4C(O)C3O)C(O)C2O)ccc1Cl", "note": "[Example 16, N-{5-[(4′,6′-O-((1R)-2-Phenyl-ethylidene)-β-D-maltosyloxy)-methyl]-2-chloro-phenyl}-acetamide]", "values": [{"measurement": "IC50", "value": 16300, "unit": "nM"}]}
{"compound": "CC(=O)Nc1cc(COC2OC(COC(=O)c3ccccc3)C(OC3OC4COC(C(C)C)OC4C(O)C3O)C(O)C2O)ccc1Cl", "note": "[Example 15, N-{5-[(6-O-Benzoyl-4′,6′-O-isobutylidene-β-D-maltosyl)-oxy-methyl]-2-chloro-phenyl}-acetamide]", "values": [{"measurement": "IC50", "value": 3, "unit": "nM"}]}
